Here are results for 7 compounds from publication PMC7794939, “Discovery of Monoacylglycerol Lipase (MAGL) Inhibitors Based on a Pharmacophore-Guided Virtual Screening Study” (Molecules, 2020).

Structures are written as SMILES. Bounds are passed on as bounds.

Common to all, as to type: biochemical
Test [1] has as its target T1, Human recombinant MAGL (Homo sapiens, UniProt Q99685).
T1 construct: purchased Cayman Chemical (Ann Arbor, MI, USA)
T1 sequence (Q99685 1-303): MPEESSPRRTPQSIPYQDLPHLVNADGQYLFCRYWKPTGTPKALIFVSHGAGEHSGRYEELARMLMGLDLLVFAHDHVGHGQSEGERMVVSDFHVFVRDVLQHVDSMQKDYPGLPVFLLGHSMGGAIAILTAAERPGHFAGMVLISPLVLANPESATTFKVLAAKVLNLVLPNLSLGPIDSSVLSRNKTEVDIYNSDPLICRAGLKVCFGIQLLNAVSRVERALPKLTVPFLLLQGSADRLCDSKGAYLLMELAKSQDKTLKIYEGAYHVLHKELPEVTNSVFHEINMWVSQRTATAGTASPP
Briefly: MAGL enzyme inhibition assay (4-NPA substrate, absorbance 405 nm). As to conditions: 30 min, rt, pH 7.2. The procedure:
Human recombinant MAGL and 4-nitrophenyl acetate substrate (4-NPA) were bought from Cayman Chemical (Ann Arbor, MI, USA). […] The IC50 values were produced in 96-well microtiter plates. The MAGL reaction was carried out at rt at a final volume of 200 µL in 10 mM Tris buffer, pH 7.2, containing 1 mM EDTA and 0.1 mg/mL BSA. […] The reaction was started by adding 40 µL of MAGL (11 ng/well) in such a way that the assay was linear over 30 min. […] Two more reactions were carried out: one reaction containing no compounds and the second one containing neither enzyme nor inhibitor.

For test [2], the target named is T1, Human recombinant MAGL. Briefly: MAGL inhibition with or without the thiol-containing agent DTT. The procedure:
(§1) Furthermore, with the aim of establishing whether the mechanism of inhibition was reversible or irreversible, the effects of preincubation on the inhibitory activity of compounds VS1 and VS2 were evaluated. In this assay, the compounds were preincubated with the enzyme for 0, 30 and 60 min before adding the substrate to start the enzymatic reaction. An irreversible inhibitor should show a higher potency after longer incubation times, whereas a reversible inhibitor should display a constant inhibition potency that is independent from the incubation time. […] Taken together, these experimental studies, aimed at better characterizing the mode of action of compounds VS1 and VS2, further supported the reliability of the binding mode predicted for the two ligands.
Human recombinant MAGL and 4-nitrophenyl acetate substrate (4-NPA) were bought from Cayman Chemical (Ann Arbor, MI, USA). The reversible compound 17b reported by Granchi et al. in 2016 was synthesized in our laboratory and used as reference compound [19]. Compound 3l was synthesized in our laboratory according to the procedure reported by Aida et al. and used as reference compound. The IC50 values were produced in 96-well microtiter plates. The MAGL reaction was carried out at rt at a final volume of 200 µL in 10 mM Tris buffer, pH 7.2, containing 1 mM EDTA and 0.1 mg/mL BSA. A total of 150 µL of 4-NPA 133.3 µM was added to 10 µL of DMSO containing the appropriate amount of compound. The reaction was started by adding 40 µL of MAGL (11 ng/well) in such a way that the assay was linear over 30 min. After the reaction had progressed for 30 min, absorbance values were measured by using a VictorX3 instrument (PerkinElmer, Waltham, MA, USA) at 405 nm. Two more reactions were carried out: one reaction containing no compounds and the second one containing neither enzyme nor inhibitor. To remove possible false positive results, a blank analysis was performed for each compound concentration and the final absorbance results were obtained detracting the absorbance produced by the presence of all the components except MAGL in the same conditions.

The target in test [3] is T1, Human recombinant MAGL. Kind of test: MAGL inhibition after preincubation of compound with enzyme (reversibility). The settings on record: preincubated with the enzyme for 0, 30 and 60 min before adding the substrate. The procedure: as §1
Human recombinant MAGL and 4-nitrophenyl acetate substrate (4-NPA) were bought from Cayman Chemical (Ann Arbor, MI, USA). […] After the reaction had progressed for 30 min, absorbance values were measured by using a VictorX3 instrument (PerkinElmer, Waltham, MA, USA) at 405 nm. […] To remove possible false positive results, a blank analysis was performed for each compound concentration and the final absorbance results were obtained detracting the absorbance produced by the presence of all the components except MAGL in the same conditions.

Where [4] appears, read: assayed in the absence of DTT, read-out: IC50 in the absence of DTT.
[5] abbreviates: assayed in the presence of 10 µM DTT, read-out: IC50 in the presence of DTT.

In the case of `O=C(c1ccc(Cl)cc1)C1CCN(C(=O)c2cccc(O)c2)CC1` [Compound 17b, reference compound], the IC50 – broadly, the concentration that inhibits the measured activity by half – in test [1] was determined as 0.9 ± 0.08 µM. In the case of `Cc1cc(=O)[nH]c(-c2ccc(NS(=O)(=O)c3ccc(F)cc3Cl)cc2)n1` [VS1], the concentration for half-maximal inhibition (IC50) in test [2] (setting [4]) turned out to be 35.4 µM; in test [2] (setting [5]) it was 34.1 µM; in test [1] it was 34.7 ± 2.4 µM. In addition, the “Effect of preincubation time on inhibitory potency (reversible or irreversible mechanism)” value in test [3] was “did not show any significant increase in inhibitory potency at longer incubation times”.

On to `O=C(c1ccco1)N1CCN(C2=CC(=O)N(c3cccc(Cl)c3)C2=O)CC1` [VS2], for which the IC50 in test [2] (setting [4]) was 47.5 µM; in test [2] (setting [5]), 49.5 µM; in test [1], 48.9 ± 4.2 µM. For the same compound, in test [3], the “Effect of preincubation time on inhibitory potency (reversible or irreversible mechanism)” value is reported as “did not show any significant increase in inhibitory potency at longer incubation times”.

`CC(C)c1ccc(OCC(=O)Nc2ccc(-c3nc4ccccc4c(=O)o3)cc2)cc1` [VS3]: the IC50 in test [1] amounted to 79.4 ± 6.3 µM. Same read-out and setting: next, `O=C(c1ccco1)N1CCN(C2CC(=O)N(c3cccc(Cl)c3)C2=O)CC1` (stereo not shown) [VS4]: 138 ± 11 µM; `O=C1c2ccc(-c3nc4ccccc4c(=O)o3)cc2C(=O)N1Cc1ccc(Cl)cc1` [VS5]: more than 200 µM; `O=C(Nc1nnc(C2CC(=O)N(c3ccccc3)C2)s1)c1cccc(Br)c1` (stereo not shown) [VS6]: more than 200 µM.
